Test results as given in US12448433B2, “Human ApoB100 epitopes, methods and uses for modulating inflammatory responses, and treating adverse cardiovascular events, disease and atherosclerosis” (LA JOLLA INSTITUTE FOR ALLERGY AND IMMUNOLOGY, priority 2015, dated 2025).
pIC50: −log10 of the molar value.

Assays:
DRB1*04:01 = DRB1*04:01 (Homo sapiens, UniProt P01903+P01911, A100K/A169T/F76Y/I96L/K127E/L162R/M171V/N62H/P40V/Q125Y/R42H/S133A/S149N/S66Y/V115G/V209L/W38E); experiment: Peptide binding to HLA-DR allele, competition assay
From the text: (§1) Peptide binding to MHC-II requires anchor residues in certain positions and thus can be predicted using computer algorithms. Affinity can be measured experimentally using a competition assay (1). Both are excellent screening tools. However, affinity must be measured separately for each MHC-II allele. Humans express molecules encoded in four different MHC-II loci, denominated HLA-DRB1, DRB3/4/5, DP and DQ. Allelic variation is large, and most people are heterozygous at each locus, thus expressing up to 8 relevant MHC-II alleles. CD4 T cell responses strictly require that the antigenic peptide binds to the relevant MHC-II.
(§2) To identify peptides that could potentially be used in human patients, 30 peptides were screened for binding to 26 HLA alleles by competition assay.

DRB4*01:01 = DRB4*01:01 (Homo sapiens, UniProt P01903+P13762, G164S); experiment: as above
From the text: as §1, §2

DRB1*09:01 = DRB1*09:01 (Homo sapiens, UniProt P01903+P01911, A100R/A103E/D57H/D86V/F55Y/F60I/F76Y/I96F/K127E/L162R/M171V/P40D/Q125H/Q99R/R33Q/R42F/S133A/S66N/T210M/V115G/W38K/Y107V/Y59G/Y89S); experiment: as above
From the text: as §1, §2

DPB1*02:01 = experiment: Peptide binding to HLA-DP allele, competition assay; design: species or system human
From the text: as §1, §2

DPB1*05:01 = experiment: as above; design: species or system human
From the text: as §1, §2

DPB1*04:02 = experiment: as above; design: species or system human
From the text: as §1, §2

DPB1*14:01 = experiment: as above; design: species or system human
From the text: as §1, §2

DPB1*03:01 = experiment: as above; design: species or system human
From the text: as §1, §2

DPB1*04:01 = biological target: T1, DPB1*04:01 (Homo sapiens, UniProt P04440); experiment: as above
T1 sequence (P04440 30-258): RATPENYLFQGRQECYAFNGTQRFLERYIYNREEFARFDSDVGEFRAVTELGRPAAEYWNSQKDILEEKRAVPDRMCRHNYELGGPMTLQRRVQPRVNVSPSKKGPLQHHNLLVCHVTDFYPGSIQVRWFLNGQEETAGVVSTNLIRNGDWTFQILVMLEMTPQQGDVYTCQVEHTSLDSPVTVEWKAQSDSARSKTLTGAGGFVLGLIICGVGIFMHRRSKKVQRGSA
T1 sequence (P20036 29-260 partner): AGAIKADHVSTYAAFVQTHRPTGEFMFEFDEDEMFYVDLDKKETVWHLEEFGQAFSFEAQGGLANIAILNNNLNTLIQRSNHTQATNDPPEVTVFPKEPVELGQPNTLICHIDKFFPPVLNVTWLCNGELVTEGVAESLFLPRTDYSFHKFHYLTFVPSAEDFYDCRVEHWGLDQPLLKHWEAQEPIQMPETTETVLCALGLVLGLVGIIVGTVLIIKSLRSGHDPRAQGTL
From the text: as §1, §2

DQB1*05:01 = experiment: Peptide binding to HLA-DQ allele, competition assay; design: species or system human
From the text: as §1, §2

DQB1*06:02 = experiment: as above; design: species or system human
From the text: as §1, §2

HLA-DRB1*01:01 = HLA-DRB1*01:01 (Homo sapiens, UniProt P01903+P01911, A100R/D57E/F55L/F60I/F76Y/I96L/L162R/M171V/P40L/Q125E/R42F/V115G/Y59C); experiment: Peptide binding to HLA-DR allele, competition assay
From the text: as §1, §2

DRB5*01:01 = DRB5*01:01 (Homo sapiens, UniProt P01903+Q30154); experiment: as above
From the text: as §1, §2

DRB3*02:02 = DRB3*02:02 (Homo sapiens, UniProt P01903+P79483, A212P/D57E/F66Y/L67A/R103Q/R218S/R40L/S89Y/T80R/V86D/Y55F/Y59H); experiment: as above
From the text: as §1, §2

atherosclerotic plaque = experiment: Peptide immunization in atherosclerosis model (ApoE−/− mice on western diet); assay type: in vivo, mouse; settings: immunization in CFA and 4×IFA

| Compound | pIC50 (DRB1*04:01) | pIC50 (DRB4*01:01) | pIC50 (DRB1*09:01) | pIC50 (DPB1*02:01) | pIC50 (DPB1*05:01) | pIC50 (DPB1*04:02) | pIC50 (DPB1*14:01) | pIC50 (DPB1*03:01) | pIC50 (DPB1*04:01) | pIC50 (DQB1*05:01) | pIC50 (DQB1*06:02) | pIC50 (HLA-DRB1*01:01) | pIC50 (DRB5*01:01) | pIC50 (DRB3*02:02) | atherosclerotic plaque in the aortic root by serial sections (atherosclerotic plaque) | atherosclerotic plaque in the whole aorta by en face staining (atherosclerotic plaque) |
| --- | --- | --- | --- | --- | --- | --- | --- | --- | --- | --- | --- | --- | --- | --- | --- | --- |
| CSCC[C@H](NC(=O)[C@H](CC(C)C)NC(=O)[C@H](Cc1ccc(O)cc1)NC(=O)[C@H](C)NC(=O)[C@H](C)NC(=O)[C@H](CC(C)C)NC(=O)[C@H](CCCNC(=N)N)NC(=O)[C@H](CCCCN)NC(=O)[C@@H](N)CC(=O)O)C(=O)N[C@@H](CC(C)C)C(=O)N[C@@H](CCSC)C(=O)N[C@@H](CCCNC(=N)N)C(=O)N[C@@H](CO)C(=O)N1CCC[C@H]1C(=O)N[C@@H](CO)C(=O)O [Peptide 3563.0004] | 8.15 | 7.92 | 7.13 | 5.78 | 8.39 | 7.64 | 6.99 | 7.59 | 6.43 | 7.28 | 7.89 |  |  |  |  |  |
| CC[C@H](C)[C@H](NC(=O)[C@@H](NC(=O)[C@@H](N)CC(C)C)[C@@H](C)CC)C(=O)N[C@@H](CC(N)=O)C(=O)N[C@@H](Cc1c[nH]c2ccccc12)C(=O)N[C@@H](CC(C)C)C(=O)N[C@@H](CCC(N)=O)C(=O)N[C@@H](CCC(=O)O)C(=O)N[C@@H](C)C(=O)N[C@@H](CC(C)C)C(=O)N[C@@H](CO)C(=O)N[C@@H](CO)C(=O)N[C@@H](C)C(=O)N[C@@H](CO)C(=O)N[C@@H](CC(C)C)C(=O)O [Peptide 3563.0015] |  | 7.92 |  | 4.79 |  | 5.69 | 5.02 |  | 5.21 |  | 5.71 |  |  |  |  |  |
| CC[C@H](C)[C@H](NC(=O)[C@H](CC(C)C)NC(=O)[C@H](CO)NC(=O)[C@@H](NC(=O)[C@@H](NC(=O)[C@@H](N)CCCCN)[C@@H](C)CC)C(C)C)C(=O)N[C@@H](CCCCN)C(=O)N[C@@H](CC(N)=O)C(=O)N[C@@H](CC(C)C)C(=O)N[C@@H](CC(C)C)C(=O)N[C@H](C(=O)N[C@@H](C)C(=O)N[C@@H](CC(C)C)C(=O)N[C@@H](CCCCN)C(=O)N[C@@H](CC(=O)O)C(=O)O)C(C)C [Peptide 3563.0028] |  |  |  | 6.18 |  | 6.81 | 5.75 |  | 7.11 | 6.91 | 5.84 |  | 7.85 |  |  |  |
| CSCC[C@H](NC(=O)[C@@H](NC(=O)[C@H](Cc1ccccc1)NC(=O)[C@@H]1CCCN1C(=O)[C@H](C)NC(=O)[C@H](CCSC)NC(=O)[C@@H](NC(=O)[C@H](CO)NC(=O)[C@H](CCCNC(=N)N)NC(=O)[C@H](Cc1ccccc1)NC(=O)[C@@H](NC(=O)[C@H](CC(N)=O)NC(=O)[C@H](CO)NC(=O)[C@H](Cc1ccccc1)NC(=O)[C@@H](N)Cc1c[nH]cn1)C(C)C)C(C)C)[C@@H](C)O)C(=O)O [Peptide 3563.0010] |  |  |  |  | 7.03 |  | 6.10 | 8.10 |  | 5.25 |  |  |  |  |  |  |
| ovalbumin |  |  |  |  |  |  |  |  |  |  |  |  |  |  | not | not |

The next lines start with results.

| pIC50 (DRB1*04:01) | pIC50 (DRB4*01:01) | pIC50 (DRB1*09:01) | pIC50 (DPB1*02:01) | pIC50 (DPB1*05:01) | pIC50 (DPB1*04:02) | pIC50 (DPB1*14:01) | pIC50 (DPB1*03:01) | pIC50 (DPB1*04:01) | pIC50 (DQB1*05:01) | pIC50 (DQB1*06:02) | pIC50 (HLA-DRB1*01:01) | pIC50 (DRB5*01:01) | pIC50 (DRB3*02:02) | Compound | atherosclerotic plaque in the aortic root by serial sections (atherosclerotic plaque) | atherosclerotic plaque in the whole aorta by en face staining (atherosclerotic plaque) |
| --- | --- | --- | --- | --- | --- | --- | --- | --- | --- | --- | --- | --- | --- | --- | --- | --- |
| 7.26 | 7.03 |  | 7.07 | 4.40 | 6.23 |  |  | 6.72 |  |  | 7.34 |  |  | CC(C)C[C@H](NC(=O)[C@H](CCC(N)=O)NC(=O)[C@H](C)NC(=O)[C@H](CC(N)=O)NC(=O)[C@H](C)NC(=O)[C@H](CCC(N)=O)NC(=O)[C@H](Cc1ccccc1)NC(=O)[C@H](CC(=O)O)NC(=O)[C@H](Cc1ccccc1)NC(=O)[C@H](CC(N)=O)NC(=O)[C@H](CC(C)C)NC(=O)[C@@H](NC(=O)[C@H](CCC(=O)O)NC(=O)[C@@H](N)CC(C)C)C(C)C)C(=O)N[C@@H](CO)C(=O)O [Peptide 3563.0017] |  |  |
|  |  |  | 6.34 | 6.37 |  | 5.19 |  |  |  | 6.31 |  | 7.24 |  | CC[C@H](C)[C@H](NC(=O)[C@H](CCCCN)NC(=O)CN)C(=O)N[C@@H](CC(=O)O)C(=O)N[C@@H](Cc1ccccc1)C(=O)N[C@@H](CC(C)C)C(=O)N[C@@H](CC(N)=O)C(=O)N[C@@H](CC(N)=O)C(=O)N[C@@H](Cc1ccc(O)cc1)C(=O)N[C@@H](C)C(=O)N[C@@H](CC(C)C)C(=O)N[C@@H](Cc1ccccc1)C(=O)N[C@@H](CC(C)C)C(=O)N[C@@H](CO)C(=O)N1CCC[C@H]1C(=O)O [Peptide 3563.0019] |  |  |
|  |  |  | 6.89 |  |  | 5.73 |  | 7.05 |  | 6.21 |  |  | 6.96 | CC[C@H](C)[C@H](NC(=O)[C@H](CC(C)C)NC(=O)[C@H](CCCCN)NC(=O)[C@H](CO)NC(=O)CNC(=O)[C@@H](N)C(C)C)C(=O)N[C@H](C(=O)N[C@@H](C)C(=O)N[C@@H](CCSC)C(=O)N[C@@H](CO)C(=O)N[C@@H](CO)C(=O)N[C@@H](Cc1c[nH]c2ccccc12)C(=O)N[C@@H](CC(C)C)C(=O)N[C@@H](CCC(N)=O)C(=O)N[C@@H](CCCCN)C(=O)O)C(C)C [Peptide 3563.0008] |  |  |
|  | 8.48 |  | 7.21 | 5.34 |  | 5.68 |  |  |  | 5.21 |  |  | 8.48 | CC[C@H](C)[C@H](NC(=O)[C@H](CC(N)=O)NC(=O)[C@H](CCCCN)NC(=O)[C@H](CC(C)C)NC(=O)[C@H](Cc1ccccc1)NC(=O)[C@H](CCCNC(=N)N)NC(=O)[C@H](CC(C)C)NC(=O)[C@H](Cc1c[nH]cn1)NC(=O)CNC(=O)[C@@H](N)CCC(=O)O)C(=O)N[C@H](C(=O)N[C@@H](CC(C)C)C(=O)N1CCC[C@H]1C(=O)N[C@H](C(=O)N[C@@H](Cc1ccc(O)cc1)C(=O)O)C(C)C)[C@@H](C)CC [Peptide 3563.0021] |  |  |
|  |  |  | 7.02 | 7.49 | 8.07 |  |  | 6.67 | 5.32 | 5.23 |  |  |  | CC[C@H](C)[C@H](NC(=O)[C@H](CC(C)C)NC(=O)[C@@H](N)Cc1ccccc1)C(=O)N[C@@H](Cc1ccc(O)cc1)C(=O)N[C@H](C(=O)N[C@H](C(=O)N[C@@H](CCC(=O)O)C(=O)N[C@@H](CC(C)C)C(=O)N[C@@H](CC(C)C)C(=O)N[C@@H](CCCCN)C(=O)N[C@@H](CCCCN)C(=O)N[C@@H](CC(C)C)C(=O)N[C@@H](CCC(N)=O)C(=O)N[C@@H](CO)C(=O)N[C@H](C(=O)O)[C@@H](C)O)[C@@H](C)O)[C@@H](C)CC [Peptide 3563.0030] |  |  |
|  |  |  | 7.24 | 6.09 | 6.83 | 4.91 |  | 8.15 | 8.43 | 4.87 |  |  |  | CC[C@H](C)[C@H](NC(=O)[C@H](CC(C)C)NC(=O)[C@H](CC(N)=O)NC(=O)[C@@H](NC(=O)[C@@H](NC(=O)[C@H](Cc1ccccc1)NC(=O)[C@H](Cc1c[nH]cn1)NC(=O)[C@H](CCCCN)NC(=O)[C@@H](NC(=O)[C@@H](N)Cc1c[nH]cn1)C(C)C)C(C)C)[C@@H](C)CC)C(=O)NCC(=O)N[C@@H](CC(=O)O)C(=O)N[C@@H](Cc1ccccc1)C(=O)N[C@@H](CCC(=O)O)C(=O)N[C@H](C(=O)O)C(C)C [Peptide 3563.0014] |  |  |
